{
  "source": "patent US9205121B2",
  "about": "“Echinacea formulation” (Integria Healthcare (Australia) PTY LTD, priority 2004, dated 2015)",
  "key": {"human liver microsomes": {"test_system": "human liver microsomes", "format": "in vitro ADME", "experimental": "Livers were obtained from organ donors according to procedures is approved by the University of Queensland ethics committees. Samples of human liver were frozen in liquid nitrogen and stored at −70° C. prior to use. Microsomes were prepared according to the method of Guengerich except that microsomes were subjected to a final wash in 10 mM Tris-acetate, 1 mM EDTA and 20% glycerol pH 7.4 (resuspension buffer) to remove residual drugs (e.g. phenytoin—data not shown) present in donor livers.\nIncubations (0.5 mL) with tissue fractions contained either the microsomal fraction at […] or the cytosolic fraction at 5 mg/mL protein in 100 mM potassium phosphate (pH 7.4) supplemented with is substrates (synthetic alkylamides 6, 11, 3 and 12 or the alkylamide fraction from the ethanolic liquid as required—see Figure legends for concentrations used) added from ethanolic stocks. Final ethanol concentrations were either 0.70% or 0.96% and were consistent in each assay. Reactions were initiated by the addition of an NADPH-generating system consisting of (final concentrations) […] NADP+, 10 mM glucose-6-phosphate and 0.5 μ/mL glucose-6-phosphate dehydrogenase. Negative controls and cytosolic incubations lacked an NADPH-generating system. Reaction mixtures were incubated at 37° C. with gentle agitation for the duration of each experiment. Reactions were terminated by addition of an equal volume of 100% methanol to a sample aliquot. Diluted samples were then centrifuged at 16000×g for 2 minutes and supernatants stored at −20° C. until analysis by LCMS.\nAlkylamide concentrations in samples were determined by LCMS using a gradient HPLC system (Shimadzu LC1OAT) coupled to a quadrupole mass spectrometer (Shimadzu, QP8000a) operating in positive SIM mode with an APCI interface. The mobile phases were a mixture of water and acetonitrile. Alkylamides 6 and 3 were detected using a 65% acetonitrile isocratic run. Alkylamides 11 and 12 were detected using an 85% acetonitrile isocratic run. The alkylamide fraction was analysed using a gradient that increased from 20% to 40% acetonitrile over the first 5 minutes, then to 80% acetonitrile over the following 15 minutes and to 100% over the next 3 minutes followed by a re-equilibration period at 20% acetonitrile prior to the next injection. A similar gradient was used in scan and then SIM (M+1 of 248, 264, 246, 192, 280 and 282) modes to identify metabolites of 3. A C18, 3 m, 100×2.00 mm Phenomenex Luna column was used with a solvent flow rate of 0.3 mL/minute. All alkylamides were linear in the range 0.001-10 mg/mL (R^2>0.9) with a coefficient of variation between 4 and 5.\nA number of pure, synthetic alkylamides (6, 11 3 and 12 as shown in FIG. 1) as well as the complex mixture of alkylamides obtained from an ethanolic extract of Echinacea were investigated for their susceptibility to liver P450-mediated degradation in microsomal preparations from four different subjects. The concentration of each substrate remaining at the given time points was quantified with LCMS and rates of substrate depletion were calculated as a percentage of the original concentration. […] From FIG. 3 it can be seen that there was a clear difference in the ability of the liver microsomal P450s to metabolise the synthetic 2-ene and the 2,4-diene alkylamides. […] In contrast, the 2,4-dienes were rapidly metabolised with only 9±2% of the original concentration of 3 and 2±1% of the original concentration of 12 detected after 2 hours. […]"}, "TNF-α": {"test_system": "TNF-α", "test": "TNF-α production under LPS stimulated conditions in macrophages", "format": "cell-based, mouse", "settings": "RAW 264.7 macrophages", "text": "Macrophages play an essential role in the development of specific and non-specific immune responses. Upon activation by a variety of stimuli macrophages release a number of products having biological activity. Such products include cytokines, such as TNF-α, […] and nitric oxide (NO). Macrophages undergo a process of cellular “activation” which is associated with morphological, functional, and biochemical changes in the cells in response to inflammatory signals or antigens. One prominent characteristic of activated macrophages is their increased capacity to release pro-inflammatory and cytotoxic mediators, which help aid in the resolution of infection or inflammation. As a prelude to macrophage activation LPS must bind to a receptor on the macrophage cell surface. Several LPS receptors have been identified in different macrophages with the most thoroughly studied receptor being the CD14 receptor.\nThe synthetic alkylamides correspond to the major 2-ene and 2,4-diene alkylamides found in Echinacea. These alkylamides are illustrated in FIG. 1 as compounds 6 and 3 respectively."}, "phagocytosis": {"test_system": "phagocytosis", "settings": "in vitro and in vivo; cited from earlier work"}},
  "data": [
    {"smiles": "C#CC#CCCCC/C=C/C(=O)NCC(C)C", "note": "[alkylamide 6, (2E)-N-isobutylundeca-2-ene-8,10-diynamide]", "values": [
      {"measurement": "% of initial levels still present", "setting": "human liver microsomes; human, 2 h, pH 7.4", "value": "91±24", "unit": "%"}
    ]},
    {"smiles": "CCCCCCC/C=C/C=C/C(=O)NCC(C)C", "note": "[alkylamide 12, (2E-4E)-N-isobutyldodea-2,4-dienamide]", "values": [
      {"measurement": "rate of alkylamide metabolism relative to the rate found for 6", "setting": "human liver microsomes", "value": "ten fold higher"}
    ]},
    {"smiles": "O=C(/C=C/c1ccc(O)c(O)c1)O[C@@H](C(=O)O)[C@@H](OC(=O)/C=C/c1ccc(O)c(O)c1)C(=O)O", "note": "[cichoric acid]", "values": [
      {"measurement": "TNF-α production under LPS stimulated conditions", "setting": "TNF-α", "value": "significantly decreased"},
      {"measurement": "stimulation of phagocytosis", "setting": "phagocytosis", "value": "marked stimulation"}
    ]},
    {"smiles": "CC#CC#CCCCC/C=C/C(=O)NCC(C)C", "note": "[alkylamide 11, (2E)-N-isobutyldodeca-2-ene-8,10-diynamide]", "values": [
      {"measurement": "rate of alkylamide metabolism relative to the rate found for 6", "setting": "human liver microsomes", "value": "two fold higher"}
    ]}
  ]
}
